Reference: PMC9964635, “Bio-Oriented Synthesis and Molecular Docking Studies of 1,2,4-Triazole Based Derivatives as Potential Anti-Cancer Agents against HepG2 Cell Line” (Pharmaceuticals, 2023)
Values after ≈ are worked out from the molar mass of the structure shown.

Tests used:
[1] = test system: HepG2 cell line; experiment: MTT assay, cell viability against HepG2; assay type: cell-based; conditions: Homo sapiens; for inhibition at 3.125 µg/mL / inhibition at 6.25 µg/mL / inhibition at 12.5 µg/mL / inhibition at 25 µg/mL / inhibition at 50 µg/mL / inhibition at 100 µg/mL / inhibition at 200 µg/mL: HepG2; for IC50: HepG2, MTT, 48 h
Protocol: The anti-hepatocellular activity of afforded N-arylated 1,2,4-triazole coupled acetamides (7a–f) was evaluated via MTT assay and these structural hybrids were screened against a liver cancer HepG2 cell line.
The cell viability of all of the compounds was further evaluated using various concentrations ([…]) to test the dose response and % inhibition relationship as shown in Table 2.
Human HepG2 liver cancer cell lines were cultured by Dulbecco’s modified Eagle’s medium. It is composed of 100 μg/mL streptomycin, 100 units/mL penicillin, and 10% FBS. A humidified atmosphere was provided for incubation at 37 °C with 5% CO2. The anti-hepatocellular therapeutic potential of triazole-based scaffolds was evaluated by dissolving its different concentrations in 0.05% DMSO.
An MTT assay was applied for evaluation of cell viability against the HepG2 cell line. In short, different concentrations of new triazole-based scaffolds were incubated with HepG2 cell lines for 48 h. After incubation, 5 mg/mL of 10 µL MTT solution was added in each plate and they were further incubated at 37 °C for 4 h. The percentage of cell viability was calculated at 490 nm after the addition of 150 μL DMSO into a microplate reader (Thermo Scientific, Waltham, MA, USA).

[2] = no reference given; cited from earlier work
[3] = Hemolytic activity, Triton-X-100 as standard; conditions: relative to Triton-X-100
Source text: Hemolytic activity was investigated by the reported method using Triton-X-100 as a standard. Molecule 7f also presented very low toxicity at 1.19 ± 0.02 relative to reference Triton-X-100. All of the other compounds had moderately good hemolytic activity.
Hemolytic activity was investigated by the reported method using Triton-X-100 as standard.

Compound | IC50 [1] [mg/L] | melting point [°C] | inhibition at 3.125 µg/mL [1] [%] | inhibition at 6.25 µg/mL [1] [%] | inhibition at 12.5 µg/mL [1] [%] | inhibition at 25 µg/mL [1] [%] | inhibition at 50 µg/mL [1] [%] | inhibition at 100 µg/mL [1] [%] | inhibition at 200 µg/mL [1] [%] | bioavailability [2] | Hemolytic Activity (Mean% ± S.D) [3] [%] | Hemolytic Activity (Mean% ± S.D) ([3]; listed as Triton X100) [%]
Cc1ccccc1NC(=O)CSc1nnc(C(C)c2ccc(CC(C)C)cc2)n1C (stereo not shown) [Compound 7a, N-(2-Methylphenyl)-2-((5-(1-(4-isobutylphenyl)ethyl)-4-methyl-4H-1,2,4-triazol-3-yl)thio)Acetamide] | 20.7 (≈ 48.9 µM) | 122 to 124 | 11.6 | 21.4 ± 6.24 | 27.7 ± 6.46 | 64 ± 1.67 | 75.2 ± 5.99 | 88.17 ± 0.26 | 89.4 ± 0.34 | – | – | –
Cc1cc(Br)ccc1NC(=O)CSc1nnc(C(C)c2ccc(CC(C)C)cc2)n1C (stereo not shown) [Compound 7b, N-(4-Bromo-2-Mthylphenyl)-2-((5-(1-(4-Isobutylphenyl)Ethyl)-4-Methyl-4H-1,2,4-Triazol-3-yl)Thio)Acetamide] | 33.6 (≈ 66.9 µM) | 122 to 124 | 10.3 | 24.8 ± 4.62 | 25.2 ± 4.67 | 31.9 ± 0.3 | 88.6 ± 1.11 | 89.4 ± 0.91 | 89.5 ± 0.06 | – | – | –
Triton-X-100 [reference compound] | – | – | – | – | – | – | – | – | – | – | 100 ± 0.0 | 100

Continued, in another order:

IC50 [1] [mg/L] | melting point [°C] | Compound | inhibition at 3.125 µg/mL [1] [%] | inhibition at 6.25 µg/mL [1] [%] | inhibition at 12.5 µg/mL [1] [%] | inhibition at 25 µg/mL [1] [%] | inhibition at 50 µg/mL [1] [%] | inhibition at 100 µg/mL [1] [%] | inhibition at 200 µg/mL [1] [%] | bioavailability [2] | Hemolytic Activity (Mean% ± S.D) [3] [%] | Hemolytic Activity (Mean% ± S.D) ([3]; listed as Triton X100) [%]
5.97 (≈ 12.8 µM) | – | CNC(=O)c1cc(Oc2ccc(NC(=O)Nc3ccc(Cl)c(C(F)(F)F)c3)cc2)ccn1 [Sorafenib, reference compound] | – | – | – | – | – | – | – | 38–49% | – | –
16.8 (≈ 38.4 µM) | 150 to 152 | Cc1cccc(C)c1NC(=O)CSc1nnc(C(C)c2ccc(CC(C)C)cc2)n1C (stereo not shown) [Compound 7f, N-(2,6-Dimethylphenyl)-2-((5-(1-(4-Isobutylphenyl)Ethyl)-4-Methyl-4H-1,2,4-Triazol-3-yl)Thio)Acetamide] | 8.4 ± 4.54 | 19.6 ± 4.07 | 34 ± 2.47 | 85.9 ± 0.3 | 86.57 ± 0.56 | 87.7 ± 1.34 | 88.36 ± 0.31 | – | – | –
39 (≈ 89.3 µM) | 100 to 102 | CCc1ccc(NC(=O)CSc2nnc(C(C)c3ccc(CC(C)C)cc3)n2C)cc1 (stereo not shown) [Compound 7c, N-(4-Ethylphenyl)-2-((5-(1-(4-Isobutylphenyl)Ethyl)-4-Methyl-4H-1,2,4-Triazol-3-yl)Thio)Acetamide] | 15.4 ± 2.01 | 17.4 ± 1.32 | 19.1 ± 1.25 | 22.8 ± 0.29 | 73.7 ± 15.5 | 78.8 ± 10.8 | 87.51 ± 0.2 | – | – | –
39.1 (≈ 95.7 µM) | 88 to 90 | CC(C)Cc1ccc(C(C)c2nnc(SCC(=O)Nc3ccccc3)n2C)cc1 (stereo not shown) [Compound 7e, N-(Phenyl)-2-((5-(1-(4-Isobutylphenyl)Ethyl)-4-Methyl-4H-1,2,4-Triazol-3-yl)Thio)Acetamide] | 18.6 ± 0.5 | 20.5 ± 7.11 | 21 ± 3.13 | 24 ± 6.12 | 74.2 ± 13.2 | 87.3 ± 2.09 | 88 ± 1.44 | – | – | –
39.7 (≈ 89.5 µM) | 123 to 125 | CC(C)Cc1ccc(C(C)c2nnc(SCC(=O)Nc3ccccc3Cl)n2C)cc1 (stereo not shown) [Compound 7d, N-(2-Chlorophenyl)-2-((5-(1-(4-Isobutylphenyl)Ethyl)-4-Methyl-4H-1,2,4-Triazol-3-yl)Thio)Acetamide] | 14.3 ± 4.27 | 17.3 ± 1.4 | 19.1 ± 17.7 | 19.5 ± 1.44 | 76.7 ± 5.63 | 78.33 ± 0.78 | 87.7 ± 0.18 | – | – | –
